Results from US8835653B2, “Chlorothiophene-isoxazoles as inhibitors of coagulation factors Xa and thrombin” (Sanofi, priority 2008, dated 2014).

Columns and labels:
human thrombin = biological target: T1, human thrombin (Homo sapiens, UniProt P00734); assay: Chromogenic assay for thrombin inhibition; type: biochemical; settings: chromogenic substrate S-2366 200 μM; Ki from IC50 by Cheng Prusoff formula, mean of duplicates
T1 construct: conversion of prothrombin to thrombin, the final enzyme in the coagulation cascade; purchased Behring LOT.-No. 881001 (a lot number; no catalogue number given)
Procedure: (§1) The ability of the compounds of the formulae I or Ia to inhibit thrombin or factor Xa or other enzymes like factor VIIa, plasmin, or trypsin can be assessed by determining the concentration of the compound of the formulae I or Ia that inhibits enzyme activity by 50%, i.e. the 1050 value, which was related to the inhibition constant Ki. Purified enzymes were used in chromogenic assays. The concentration of inhibitor that causes a 50% decrease in the rate of substrate hydrolysis was determined by linear regression after plotting the relative rates of hydrolysis (compared to the uninhibited control) versus the log of the concentration of the compound of formulae I or Ia. For calculating the inhibition constant Ki, the 1050 value was corrected for competition with substrate using the formula Ki=IC50/{1+(substrate concentration/Km)} wherein Km is the Michaelis-Menten constant (Chen and Prusoff, Biochem. Pharmacol. 22 (1973) 3099-3108). Measurement of F Xa and Thrombin Inhibition:
(§2) The claimed substances were tested for F Xa and thrombin inhibition with a chromogenic assay. 8 μl DMSO solution of the compound, 72 μL assay buffer (50 mM TRIS, 150 mM NaCl, 0.1% BSA, pH 7.8) and 20 μL enzyme (human coagulation factor Xa: Haemochrom Diag. Cat. Nr. HFXa, final concentration […]; human thrombin Behring: LOT.-No. 881001) were mixed and incubated for 15 minutes at room temperature in a 96 well microtiter plate. The enzyme reaction was started with 100 μL substrate (F Xa: S-2765, Chromogenix/Haemochrom Cat. Nr. 41249; thrombin: S-2366, Chromogenix/Haemochrom Cat. Nr. 41222 both in a final concentration of 200 μM). The time course of the reaction was monitored at 405 nm in a microtiter plate reader (SpectraMax plus 384; Molecular Devices Inc.) for 15 minutes.
(§3) The Ki was calculated from the mean of duplicates from a dilution series of the compound by the reader according to the Cheng Prusoff formula Ki=IC50/(1+(S/Km).
(§4) The results (inhibition constants Ki Thrombin and FXa in mikro M [μM]) for inhibition of thrombin and factor Xa are shown in Table 1.

[1] = biological target: T2, human coagulation factor Xa (Homo sapiens, UniProt P00742); assay: Chromogenic assay for F Xa inhibition; type: biochemical; settings: chromogenic substrate S-2765 200 μM; Ki from IC50 by Cheng Prusoff formula, mean of duplicates
T2 construct: purchased Haemochrom Diag; HFXa
T2 sequence (P00742 235-488 limits assumed): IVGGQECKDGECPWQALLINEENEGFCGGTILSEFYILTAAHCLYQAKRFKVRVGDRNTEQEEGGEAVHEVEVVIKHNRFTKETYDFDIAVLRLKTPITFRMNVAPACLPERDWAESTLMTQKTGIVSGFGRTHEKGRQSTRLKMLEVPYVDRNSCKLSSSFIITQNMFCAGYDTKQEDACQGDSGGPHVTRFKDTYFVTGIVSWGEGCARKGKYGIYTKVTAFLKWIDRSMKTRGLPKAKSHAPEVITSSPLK
T2 sequence (P00742 41-179 limits assumed): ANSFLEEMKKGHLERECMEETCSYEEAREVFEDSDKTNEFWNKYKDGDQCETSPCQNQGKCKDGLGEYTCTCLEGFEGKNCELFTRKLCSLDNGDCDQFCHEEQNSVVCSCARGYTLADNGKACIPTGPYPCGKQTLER
Procedure: as §1, §2, §3, §4

SMILES | Ki (human thrombin) | Ki [1]
CCc1c(N2CCOCC2=O)cccc1S(=O)(=O)N[C@@H](Cc1cc(-c2ccc(Cl)s2)on1)C(=O)N1CCCCCC1 [Example 1, N-{(S)-2-Azepan-1-yl-1-[5-(5-chloro-thiophen-2-yl)-isoxazol-3-ylmethyl]-2-oxo-ethyl}-2-ethyl-3-(3-oxo-morpholin-4-yl)-benzenesulfonamide] | 0.35 nM | 13 nM
O=C([C@H](Cc1cc(-c2ccc(Cl)s2)on1)NS(=O)(=O)c1cccc(N2CCOCC2=O)c1Cl)N1CCCCCC1 [Example 2, N-{(S)-2-Azepan-1-yl-1-[5-(5-chloro-thiophen-2-yl)-isoxazol-3-ylmethyl]-2-oxo-ethyl}-2-chloro-3-(3-oxo-morpholin-4-yl)-benzenesulfonamide] | 7 nM | 83 nM
COc1c(N2CCCCC2=O)cc(F)cc1S(=O)(=O)N[C@@H](Cc1cc(-c2ccc(Cl)s2)on1)C(=O)NCC1CC1 [Example 3, (S)-3-[5-(5-Chloro-thiophen-2-yl)-isoxazol-3-yl]-N-cyclopropylmethyl-2-[5-fluoro-2-methoxy-3-(2-oxo-piperidin-1-yl)-benzenesulfonylamino]-propionamide] | 268 nM | 904 nM
COc1c(N2CCCCC2=O)cc(F)cc1S(=O)(=O)N[C@@H](Cc1cc(-c2ccc(Cl)s2)on1)C(=O)N1CCN(C2CC2)CC1 [Example 4, N—[(S)-1-[5-(5-Chloro-thiophen-2-yl)-isoxazol-3-ylmethyl]-2-(4-cyclopropyl-piperazin-1-yl)-2-oxo-ethyl]-5-fluoro-2-methoxy-3-(2-oxo-piperidin-1-yl)-benzenesulfonamide trifluoro acetate] | 29 nM | 6 nM
O=C([C@H](Cc1cc(-c2ccc(Cl)s2)on1)NS(=O)(=O)c1cccc(N2CCCCC2=O)c1OC(F)F)N1CCN(C2CC2)CC1 [Example 5, N—[(S)-1-[5-(5-Chloro-thiophen-2-yl)-isoxazol-3-ylmethyl]-2-(4-cyclopropyl-piperazin-1-yl)-2-oxo-ethyl]-2-difluoromethoxy-3-(2-oxo-piperidin-1-yl)-benzenesulfonamide trifluoro acetate] | 94 nM | 33 nM
Cc1c(N2CCCC2=O)cccc1S(=O)(=O)N[C@@H](Cc1cc(-c2ccc(Cl)s2)on1)C(=O)N1CCN(CC(F)(F)F)CC1 [Example 6, N-{(S)-1-[5-(5-Chloro-thiophen-2-yl)-isoxazol-3-ylmethyl]-2-oxo-2-[4-(2,2,2-trifluoro-ethyl)-piperazin-1-yl]-ethyl}-2-methyl-3-(2-oxo-pyrrolidin-1-yl)-benzenesulfonamide trifluoro acetate] | 14 nM | 0.72 nM
Cc1c(N2CCCC2=O)cccc1S(=O)(=O)N[C@@H](Cc1cc(-c2ccc(Cl)s2)on1)C(=O)N1CCNC(C(F)(F)F)C1 (stereo partly drawn) [Example 7, N—[(S)-1-[5-(5-Chloro-thiophen-2-yl)-isoxazol-3-ylmethyl]-2-oxo-2-(3-trifluoromethyl-piperazin-1-yl)-ethyl]-2-methyl-3-(2-oxo-pyrrolidin-1-yl)-benzenesulfonamide trifluoro acetate] | 0.79 nM | 0.44 nM
